Measurements as given in patent publication US20090257999A1, “Method of preventing contrast-induced nephropathy” (Inotek Pharmaceuticals Corporation, priority 2007, published 2009).

Legend:
Type in all cases: in vivo, rat
diabetic rats [1] = assay: CIN animal model, Example 1: fractional excretion of Na+ (FENa, tubular function); settings: at 96 hours
Experimental: (§1) Male Wistar rats (150-200 g; Harlan Nossanr) were housed in a controlled environment and provided with standard rodent chow and water.
After 12 hours of fasting, the animals received a single 60 mg/kg intravenous (i.v.) injection of streptozotocin (Sigma, St. Louis, Mo.) in 10 mM sodium citrate buffer, pH 4.5 (see figure showing CIN model). Control non-diabetic animals were fasted and received citrate buffer alone. After 24 hours, animals with blood glucose levels greater than 250 mg/dl were considered diabetic. All experiments were performed 10 days following the induction of diabetes. The diabetic state was evaluated daily by determination of the blood glucose levels. […]
At the indicated time point blood samples were collected via the lateral tail vein into S1/3 tubes containing serum gel. […] All plasma samples were analyzed for biochemical parameters within 24 hours of collection. Plasma concentrations of urea and creatinine were measured as indicators of impaired glomerular function. Urine samples were collected at 96 hour after contrast agent administration and the volume of urine produced was recorded. Urine concentrations of Na^+ were measured and were used in conjunction with plasma Na^+ concentrations to calculate fractional excretion of Na^+ (FENa) using standard formulae, which was used as an indicator of tubular function. […]

diabetic rats [2] = assay: CIN model, Example 5: INO-1001 alone and with NAC in diabetic rats; settings: diabetic rats + Iomeprol, NAC 30 mg/kg i.v., INO-1001 10 mg/kg ip, or both, at −30 min
Experimental: Male Wistar rats (150-200 g; Harlan Nossanr) were housed in a controlled environment and provided with standard rodent chow and water. Diabetes was induced after 12 h of fasting. The animals received a single 60 mg/kg intravenous (i.v.) injection of streptozotocin (Sigma, St. Louis, Mo.) in 10 mM sodium citrate buffer, pH 4.5 (see figure). Control non-diabetic animals were fasted and received citrate buffer alone. After 24 hours, animals with blood glucose levels greater than 250 mg/dl were considered diabetic. The diabetic state was confirmed by evaluating the blood glucose levels. Ten days following the induction of diabetes rats were anesthetized with 90 mg/kg ketamine i.m. and 10 mg/kg xylazine i.m. and were treated with the contrast agent iomeprol (10 mL/kg injected via the lateral tail vein) or with 0.9% normal saline. The contrast agent used was the low osmolar non-ionic monomer iomeprol (Iomeron, 400 mgI mL-1; Bracco SpA, Milan, Italy) with an osmolality of 726±34 mosmol/kg H2O.
GROUP 1: Diabetic rats only+Placebo (i.v.). GROUP 2: Diabetic rats+Iomeprol+Placebo (i.v.) given at −30 min. GROUP 3: Diabetic rats+Iomeprol+NAC (30 mg/kg, i.v.) given at −30 min. GROUP 4: Diabetic rats+Iomeprol+INO-1001 (10 mg/kg, ip) given at −30 min. GROUP 5: Diabetic rats+Iomeprol+NAC (30 mg/kg, i.v.)+INO-1001 (10 mg/kg, ip) given at −30 min.
Blood samples were collected via the lateral tail vein into S1/3 tubes containing serum gel at 24 hours. The samples were centrifuged (6000 r.p.m. for 3 min) to separate plasma. All plasma samples were analyzed for biochemical parameters within 24 hours after collection. Plasma and urine concentrations of creatinine were measured as indicators of impaired glomerular function. Creatinine clearance was calculated using the following formula (=UV/P), where U refers to Creatinine concentration in urine, V to urine volume/min and P to serum creatinine. Plasma and urine concentrations of NGAL (neutrophil gelatinase associated lipocalin) levels and urine αGST (alpha glutathione S-transferase) and NGAL levels were evaluated.
Protein concentration in urine was determined by Bio-Rad DC Protein Assay (BioRad, Richmond Calif.). The Bio-Rad DC protein assay is a colorimetric assay for protein concentration. The reaction is similar to the well-documented Lowry assay (Lowry et al., Protein measurement with the Folin phenol reagent, J Biol Chem 193, 265-275 (1951). The Bio-Rad DC protein assay requires only a single 15-minute incubation, and absorbance is stable for a least 2 hours. The amount of protein is expressed in mg/ml.

[3] = system: Myeloperoxidase (MPO) activity in kidneys; assay: Kidney myeloperoxidase (MPO) activity, Example 1; settings: at 96 hours
Experimental: (§2) Experimental model for assessing the effects of Metalloporphyrin A on CIN: Diabetic (n=8) for group #'s 1-9 or wild-type rats (n=10) for group #'s 10 and 11 were treated with drug 60 min prior to contrast agent administration. At the “0” time point, Iomeprol was administered with ensuing drug intervention dosing every 12 hours for Metalloporphyrin A from 24-84 hours or every 24 hours for NAC from 24-72 hours. At the 96 hour time point, kidneys were harvested for histopathology, MPO and MDA measurements. From 0-96 hours, plasma samples from all animals per group were screened for urea, creatinine, fractional excretion of Na^+ and NGAL.
Myeloperoxidase (MPO) activity in kidneys was used as an indicator of polymorphonuclear (PMN) cell infiltration activation using a method previously described (Hillegass et al, J. Pharmacol. Methods. 24(4):285-95,1990).
At the end of the experiments, kidney tissue was weighed and homogenized in a solution containing 0.5% (wt/vol) hexadecyltrimethylammonium bromide dissolved in 10 mmol/L potassium phosphate buffer (pH 7.4) and centrifuged for 30 minutes at 20,000 g at 4° C. […] The rate of change in absorbance was measured spectrophotometrically at 650 nm. MPO activity was defined as the quantity of enzyme required to degrade 1 mmol of H2O2 at 37° C. and was expressed in U/g wet tissue.

diabetic rats [4] = assay: CIN animal model, Example 1: plasma urea and creatinine (glomerular dysfunction)
Experimental: as §1
After 12 hours of fasting, the animals received a single 60 mg/kg intravenous (i.v.) injection of streptozotocin (Sigma, St. Louis, Mo.) in 10 mM sodium citrate buffer, pH 4.5 (see figure showing CIN model). Control non-diabetic animals were fasted and received citrate buffer alone. After 24 hours, animals with blood glucose levels greater than 250 mg/dl were considered diabetic. All experiments were performed 10 days following the induction of diabetes. The diabetic state was evaluated daily by determination of the blood glucose levels. Upon the induction of the diabetic state the animals were presenting with a major risk factor pre-disposing the animals to CIN after the administration of contrast media.
Ten days following the induction of diabetes the rats were anesthetized with 90 mg/kg ketamine i.m. and 10 mg/kg xylazine i.m. and were treated with the contrast agent iomeprol (10 mL/kg injected via the lateral tail vein) or with 0.9% normal saline. The contrast agent used was the low osmolar non-ionic monomer iomeprol (Iomeron, 400 mgI mL-1; Bracco SpA, Milan, Italy) with an osmolality of 726±34 mosmol/kg H2O. Upon completion of surgical procedures, the animals were randomly allocated to eleven different experimental groups as tabulated below:
as §2
At the indicated time point blood samples were collected via the lateral tail vein into S1/3 tubes containing serum gel. The samples were centrifuged (6000 r.p.m. for 3 min) to separate plasma. All plasma samples were analyzed for biochemical parameters within 24 hours of collection. Plasma concentrations of urea and creatinine were measured as indicators of impaired glomerular function. Urine samples were collected at 96 hour after contrast agent administration and the volume of urine produced was recorded. Urine concentrations of Na^+ were measured and were used in conjunction with plasma Na^+ concentrations to calculate fractional excretion of Na^+ (FENa) using standard formulae, which was used as an indicator of tubular function.

[5] = diabetic rats + i.v. Iomeprol, Metalloporphyrin A 30-1000 μg/kg or NAC 10 mg/kg i.p.
[6] = diabetic rats + i.v. saline (no contrast agent), Metalloporphyrin A 1000 μg/kg or NAC 10 mg/kg i.p.
[7] = diabetic rats + i.v. Iomeprol 10 ml/kg, Metalloporphyrin A 1000 μg/kg or NAC 10 mg/kg i.p., at 48, 72 and 96 hours
[8] = diabetic rats + i.v. saline (no contrast agent), NAC 10 mg/kg i.p., at 72 and 96 hours

`CC(=O)N[C@@H](CS)C(=O)O` [NAC, N-acetylcysteine] was tested, and the “fractional excretion of sodium (FENa)” value (diabetic rats [1]; [5]) was “significant reductions”, the “fractional excretion of sodium (FENa)” value (diabetic rats [1]; [6]) was “significantly reduced the increase” and the plasma creatinine (diabetic rats [2]; 24 h) was “significant reductions”. For the same compound, the “plasma NGAL concentration” value (diabetic rats [2]; 24 hours) was “significant reductions”, the “total protein concentration in the urine” value (diabetic rats [2]; 24 hours) was “significant reductions” and the “urine NGAL concentration” value (diabetic rats [2]; 24 hours) was “significant reductions”. For the same compound, the “urine αGST” value (diabetic rats [2]; 24 hours) was “significant reductions”, the “kidney MPO activity” value [3, 5] was “significant reductions” and the “kidney MPO activity” value [3, 6] was “significantly reduced the increase”. For the same compound, the plasma creatinine concentration (diabetic rats [4]; [7]) was “reductions”, the plasma urea concentration (diabetic rats [4]; [7]) was “reductions” and the plasma creatinine concentration (diabetic rats [4]; [8]) was “significantly reduced the increase”. For the same compound, the plasma urea concentration (diabetic rats [4]; [8]) was “significantly reduced the increase”.
